Results taken from patent US10209240B2, “Predicting human developmental toxicity of pharmaceuticals using human stem-like cells and metabolomic ratios” (STEMINA BIOMARKER DISCOVERY, INC., priority 2012, dated 2019).
Where two headings read alike, the source gives them in different places.

Tests used:
Rodent = details: training and test set; cited from earlier work
WA09 hES cells [1] = assay: Phase 2 targeted biomarker assay, ornithine/cystine ratio, 9-point dose response
In short: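 WA09 hES cells (≤ passage 40), plated as single cells at 100,000/well on Matrigel in mTeSR1 with 10 μM Y27632, dosed 24 h later with nine 3-fold dilutions, 0.04–300 μM, 0.1% DMSO, for 72 h. Final-24 h spent medium, spiked with 13C6-arginine and filtered (<10 kDa), analysed by LC-HRMS; viability by CellTiter-Fluor.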

rat whole embryo = details: training and test set; weak/moderate and strong teratogens both labeled teratogen; cited from earlier work
Humans = details: cited from earlier work; for Humans (known human developmental toxicity): training and test set; for Known Effect: validation and test set treatments of Example 2
hES cells [2] = assay: devTOX computational model predictions (Version 2.0, Version 2.1) from hES cell metabolomics; type: cell-based, human; details: single dose per treatment (Dose column)
Source text: The selection process weighted the predictive capacity of a feature, overall intensity, and peak shape to identify very well behaved features/metabolites that could be measured by targeted LC-MS or even by other detection systems.
(§1) This simplified model is based on a ratio of the reference treatment (DMSO) normalized values of ADMA and cystine.

Rabbit = details: training and test set; cited from earlier work
zebrafish = details: training and test set; weak/moderate and strong teratogens both labeled teratogen; cited from earlier work
WA09 hES cells [3] = tested on: WA09 hES cells
[4] = therapeutic peak plasma in vivo concentration, human, cited from earlier work
[5] = tested on: mouse embryonic stem cell; details: training and test set; weak/moderate and strong teratogens both labeled teratogen; cited from earlier work
hES cells [6] = assay: ADMA/cystine ratio simplified predictive model in hES cell spent media; type: cell-based, human; details: single dose per treatment; ratios less than 0.9 indicate teratogenicity
Source text: as §1
The X-axis is the reference normalized ratio of ADMA/Cystine. The y-axis is the training set of pharmaceuticals. Grey color with triangle glyphs represents teratogens and black color with circle glyphs represents non-teratogens. Each glyph point represents the media value of an independent experimental block (6 reps per block). The crosshair glyphs mark the sample medians. In FIG. 9, grey vertical line is threshold of teratogenicity, grey horizontal lines are the median absolute deviations, and black vertical line designates 1.0. The arrows at the bottom indicate the values used for differentiation of teratogens and nonteratogens, utilizing a cut off of 0.9 (grey line).

[7] = summarized from TERIS and Briggs et al. 2011, cited from earlier work
[8] = Solubility in DMSO for stock solutions
Description: Phase I hES Cell Compound Exposure. hES cells were treated with a test compound at a single concentration equivalent to the compound's published therapeutic Cmax. […] This was done to ensure that enough cells were present at the time of sample collection to provide a signal for LC-HRMS analysis. For test compound exposure, all compound stock solutions, with the exception of valproic acid, were made with DMSO (Sigma-Aldrich). […] Each 96-well plate included media controls with and without test compound, 0.1% DMSO solvent control cells and cells exposed to a single concentration of eight different test compounds (FIG. 1A). Media controls were included on each plate to assess the impact of test compound on the sample matrix. hES cells were exposed to the test compound for 72 hours, with media and test compound replacement every 24 hours. Cells were monitored throughout the treatment period to ensure that no differentiation was occurring. After 72 hours of treatment, the spent media from the final 24-hour treatment period was collected and added to acetonitrile (Sigma-Aldrich, final acetonitrile concentration 40%), to halt metabolic processes and precipitate proteins from solution. Individual wells from each 96-well plate were collected and analyzed as separate samples. These samples were then stored at −80° C. until prepared for LC-HRMS analysis. Cell viability was assessed using the CellTiter-Fluor Cell Viability Assay as per the manufacturer's instructions (Promega, Madison, Wis.). […]
Phase 2 hES Cell Compound Exposure. […] Cell viability was assessed using the CellTiter-Fluor Cell Viability Assay. A quality control step was included with criteria that the CV of the measured viability RFU of the DMSO control cells could not exceed 10% for a plate to undergo LC-HRMS analysis. […]

[9] = training set, teratogenicity potential scored against therapeutic Cmax

| Compound | Rodent prediction (Rodent) | O/C Ratio Prediction (WA09 hES cells [1]) | Targeted Biomarker Assay prediction (WA09 hES cells [1]) | Teratogenicity Potential (μM) O/C Ratio (WA09 hES cells [1]; human, 72 h) [µM] | WEC prediction (rat whole embryo) | Humans (known human developmental toxicity) (Humans) | Known Effect (Humans) | Model Predictions Version 2.0 (hES cells [2]) | Model Predictions Version 2.1 (hES cells [2]) | Rabbit prediction (Rabbit) | ZET prediction (zebrafish) | Viability Prediction (WA09 hES cells [3]) | Teratogenicity Potential (μM) Cell Viability (WA09 hES cells [3]; human, 72 h) [µM] | Cmax ([4]; training set) [nM] | mEST prediction [5] | Model Predictions ADMA/Cystine (hES cells [6]) | Preclinical in vivo and known human developmental effects ([7]; training set compounds) | Change in the o/c ratio, also relative to cytotoxicity (WA09 hES cells [1]) | also measured |
| --- | --- | --- | --- | --- | --- | --- | --- | --- | --- | --- | --- | --- | --- | --- | --- | --- | --- | --- | --- |
| CN(Cc1cnc2nc(N)nc(N)c2n1)c1ccc(C(=O)N[C@@H](CCC(=O)O)C(=O)O)cc1 [Methotrexate] | TER | TER | TER | 0.05 | TER^f | TER | Ter | Ter | Ter | TER | TER^d | TER | 0.05 | 200 | TER^b,i | Ter | Craniofacial, limb, skeletal, | – | Cytotoxicity at the Cmax exposure level (WA09 hES cells [3]; human, 72 h): greater than 30% |
| CC1=C(/C=C/C(C)=C/C=C/C(C)=C/CO)C(C)(C)CCC1 [Retinol] | TER | NON | NON | 42.2 | TER^q | NON | Non | Ter | Non | TER | TER^c,n | NON | 42.8 | 2400 | NON^p | Non | Low Doses: None; High | o/c ratio is directly correlated with cell death | Classification by o/c ratio in the targeted biomarker assay (WA09 hES cells [1]): correctly classify; Exposure level of o/c ratio change/cell death relative to levels normally encountered by humans (WA09 hES cells [1]; human, 72 h): ~20 times; Dose shown to cause malformations (Humans; experimental animals and humans, Teratology Society 1987): > 25,000 IU/day; Dose without adverse effect on the developing fetus (FDA maximum RDA) (Humans; human pregnancy): ≤ 8,000 IU |
| Nc1nc2ncc(CNc3ccc(C(=O)N[C@@H](CCC(=O)O)C(=O)O)cc3)nc2c(=O)[nH]1 [Folic Acid] | – | – | NON | – | – | NON | – | Ter | Non | – | – | NON | >300 | 35 | – | Non | – | – | Solubility in DMSO (words) [8]: completely insoluble in DMSO |
| CCN(CC)CCNC(=O)c1cc(Cl)c(N)cc1OC [Metoclopramide] | NON | NON | NON | 190.8 | NON^f,j | NON | Non | Ter | Non | NON | NON^d | NON | >300 | – | TER^i,m | Non | – | – | Cmax ([4]; test set): 150 nM; Preclinical in vivo and known human developmental effects ([7]; test set compounds): None |
| O=c1[nH]cc(F)c(=O)[nH]1 [5-Fluorouracil] | TER | TER | TER | 3 | TER^f,k | TER | Ter | Ter | Ter | TER | TER^c | TER | 2 | 4250 | TER^b,i | Ter | Craniofacial, central | change in o/c ratio that is directly correlated with a decrease in cell viability | Cytotoxicity at the Cmax exposure level (WA09 hES cells [3]; human, 72 h): greater than 30% |
| CC1(C)S[C@@H]2[C@H](NC(=O)Cc3ccccc3)C(=O)N2[C@H]1C(=O)O [Penicillin G] | NON | – | – | – | NON^f,j | NON | Non | Non | Non | NON | NON^c,e,n | – | – | 135000 | NON^b,i | Non | None | – | Targeted Biomarker Assay prediction (WA09 hES cells [1]; training and test set, o/c ratio scored against therapeutic Cmax): NON; Teratogenicity Potential (μM) O/C Ratio (WA09 hES cells [1]; training set, interpolated concentration where o/c ratio dose response curve crosses teratogenicity threshold 0.88, 72 hours): >300 µM; O/C Ratio Prediction (WA09 hES cells [1]; [9]): NON; Teratogenicity Potential (μM) Cell Viability (WA09 hES cells [3]; training set, interpolated concentration where cell viability dose response curve crosses teratogenicity threshold 0.88, 72 hours): >300 µM; Viability Prediction (WA09 hES cells [3]; [9]): NON |
| O=C1NS(=O)(=O)c2ccccc21 [Saccharin] | NON | NON | NON | >300 | NON^j | NON | Non | Non | Non | NON | NON^c,e | NON | >300 | 1400 | NON^b,i | Non | None | no change in the o/c ratio or viability | – |
| NNC(=O)c1ccncc1 [Isoniazid] | NON | NON | NON | 165.4 | TER^f,j | NON | Non | Ter | Ter | NON | NON^c,n | NON | >300 | 51000 | NON^b,i | Non | None | – | – |
